These are literature values, as cited in US6004969A (National Science Council, priority 1997, dated 1999).

For data set [1] the following is noted: oral administration; words.
A further data set relates to animal paw swelling. The following applies: topical use; words.

Turning to `CO[C@]12CC[C@@]3(C[C@@H]1[C@](C)(O)C(C)(C)C)[C@H]1Cc4ccc(O)c5c4[C@@]3(CCN1CC1CC1)[C@H]2O5` [Buprenorphine, 21-cyclo-propylmethyl-7-α-[(S)-1-hydroxy-1,2,2-trimethylpropyl]-6,14-endoethano-6,7,8,14-tetrahydroripavine], in data set [1], the first pass effect result is on record as “high first pass effect” and the gastrointestinal absorption result is on record as “poor gastrointestinal absorption”.
As for `CC1(C)[C@@H](O)CC[C@]2(C)[C@H]3C(=O)C=C4[C@@H]5C[C@@](C)(C(=O)O)CC[C@]5(C)CC[C@@]4(C)[C@]3(C)CC[C@@H]12` [glycyrrhetinic acid], in the data set with animal paw swelling, the “inhibition of animal paw swelling” value is “can inhibit animal paw swelling”.
With `CC1(C)[C@@H](O[C@H]2O[C@H](C(=O)O)[C@@H](O)[C@H](O)[C@H]2O[C@@H]2O[C@H](C(=O)O)[C@@H](O)[C@H](O)[C@H]2O)CC[C@]2(C)[C@H]3C(=O)C=C4[C@@H]5C[C@@](C)(C(=O)O)CC[C@]5(C)CC[C@@]4(C)[C@]3(C)CC[C@@H]12` [glycyrrhizic acid], in the data set on animal paw swelling, the “inhibition of animal paw swelling” value is “can inhibit animal paw swelling”.
